We go through three molecules from patent US6620938B1, “Compounds that inhibit GRB2-SHC binding and process for preparing same” (Korea Research Institute of Bioscience and Biotechnology, priority 1999, dated 2003).

The structures appear in SMILES notation. “And” between values parts separate entries of the source, which are not always exact repeats. Equal values may be shown once.

One series deals with phospholipase A2. The following applies: reported in the literature; cited from earlier work.
Series [1] can be described thus: Solubility in solvents (physicochemical characteristics, Table 1). The text has this: Based on the above-mentioned spectral data and physicochemical characteristics shown in Table 1, the structures of Compounds(I), (II) and (III) was unequivocally settled. Compounds(II) and (III) are sclerotiorine and isochromopilone, respectively, which are known compounds, while Compound(I) is a novel compound.

The target of series [2] is T1, Grb2-Shc binding (GST-Grb2 fusion protein, [3H]propionylated-hShc peptide) (Homo sapiens, UniProt P62993).
T1 construct: purchased Santa Cruz Biotech Inc
T1 sequence (P62993 whole entry, the tested form may be a part): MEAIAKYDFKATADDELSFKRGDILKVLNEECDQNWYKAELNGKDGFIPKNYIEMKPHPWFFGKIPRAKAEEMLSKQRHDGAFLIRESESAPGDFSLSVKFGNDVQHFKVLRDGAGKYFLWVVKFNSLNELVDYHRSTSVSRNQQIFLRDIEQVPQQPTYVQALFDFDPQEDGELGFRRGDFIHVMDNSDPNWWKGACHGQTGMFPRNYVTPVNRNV
Description: Grb2-Shc binding inhibition, scintillation proximity assay. Conditions: SPA, competition with [3H]propionylated-hShc peptide for GST-Grb2, room temperature 30 minutes, pH 7.4; read-out: concentration required for inhibiting the Grb2-Shc binding by 50% (IC50). On the procedure: The activity of the inventive compound in inhibiting Grb2-Shc binding was determined in accordance with the scintillation proximity assay method by way of measuring the extents of competitive bindings of [^3H]propionylated-hShc peptide and the inventive compound toward Grb2.
Added to a 1.5 ml eppendorf tube were 10 μl of 0.3 μg GST-Grb2 fusion protein(Santa Cruz Biotech Inc.), 10 μl of SPA PVT antibody-binding beads(Amersham Co.), 10 μl of 0.1 μ Ci [^3H]propionylated-hShc peptide(Amersham Co.), 10 μl of 6 μg anti-GST rabbit IgG(Molecular Probes) and 10 μl of a DMSO solution containing each of the compounds obtained in Example 2 and the total volume was adjusted to 200 μl using SH2 buffer solution(20 mM Tris-HCI, 250 mM NaCl and 0.1% cow serum albumin, pH 7.4). The resulting mixture(sample) was reacted at room temperature for 30 minutes. After the completion of the reaction, the Grb2-Shc binding inhibiting activity was determined by examining the extent of comparative binding of [^3H]propionylated-hShc peptides toward Grb2 proteins, expressed by a unit of count per minute(CPM), with a liquid scintillation counter. The same procedure was repeated in the absence of GST-Grb2(blank) or in the absence of any added compounds(control).
The Grb2-Shc binding inhibiting activity was then calculated in accordance with the following equation: [formula]
In general terms: In a scintillation proximity assay essentially only radioactivity close to the scintillant gives light.

In the case of `CCC(C)/C=C(C)/C=C/C1=CC2=C(Cl)C(=O)[C@](C)(OC(C)=O)C(=O)C2=CO1` (stereo partly shown) [Compound(II), sclerotiorine], the “phospholipase A2 inhibiting activity” value with phospholipase A2 was “phospholipase A2 inhibiting activity”. In series [1], the Insoluble entry is “H2O”. In series [2], the IC50 is ~12 µM and 12 µM.
Turning to `CCC(C)/C=C(C)/C=C/c1cc2c(cn1)=C(OC)[C@@](C)(OC(C)=O)C(=O)C=2Cl` (stereo partly shown) [Compound(I)], the Insoluble entry in series [1] was “H2O”. Also, the IC50 in series [2] was ~6 µM and 6 µM.
As to `CCC(C)/C=C(C)/C=C/C1=CC2=C(Cl)C(=O)[C@](C)(O)C(OC(C)=O)C2CO1` (stereo partly shown) [Compound(III), isochromopilone IV], the Soluble entry in series [1] (solvents in which the compound is soluble) was “CHCl3, EtOAc, and MeOH”. Besides, in series [2], the IC50 is ~11 µM and 11 µM.
